In one series the test system is HAdV5-GFP. The experiment in a line: Plaque assay (inhibition of HAdV plaque formation). It is filed as cell-based, HAdV-5. The conditions noted are these: for Selectivity index (SI): ratio of CC50 to IC50 in plaque assay; for inhibition at 10 µM: read-out: Plaque Assay (%) Inhibition (10 μM); for IC50: read-out: Plaque Assay IC50 (μM), HAdV5-GFP, low MOI, 293β5 cell line. As to the method: Plaque Assay. […] When cells reached 80-90% confluency, they were infected with HAdV5-GFP (0.06 vp/cell) and rocked for 2 h at 37° C. After the incubation the inoculum was removed, and the cells were washed once with PBS.
Plaque Assay. Compounds were tested using low MOI infections (0.06 vp/cell) and at concentrations of 10 μM and in a dose-response assay ranging from 10 to 0.3 μM in a plaque assay. […] When cells reached 80-90% confluency, they were infected with HAdV5-GFP (0.06 vp/cell) and rocked for 2 h at 37° C. After the incubation the inoculum was removed, and the cells were washed once with PBS. […] The mixture also contained the compounds in concentrations ranging from 10 to 0.3 μM.

In a further series the test system is A549 cells. The experiment in a line: Cytotoxicity assay (AlamarBlue). The conditions noted are these: read-out: CC50 (μM), cytotoxic concentration 50%; A549 cell line, 48 h. As to the method: Cytotoxicity Assay. The cytotoxicity of the compounds was analyzed by commercial kit AlamarBlue® (Invitrogen, Ref. DAL1025). A549 cells at a density of 5×10^3 cells per well in 96-well plates were seeded. […] Cells were then incubated at 37° C. for 48 h following the kit protocol. The cytotoxic concentration 50 (CC50) value was obtained using the statistical package GraphPad Prism. This assay was performed in duplicate.
A general note: The colour change of resazurin is a common sign of viable cells or microbes.

Broadly, the inhibition is the drop in the measured response relative to a control, in per cent. By IC50 is commonly meant the concentration that gives 50% inhibition. `CC(C)[C@H](NC(=O)c1cc(Cl)ccc1O)C(=O)Nc1cc(C(F)(F)F)cc(C(F)(F)F)c1` [Compound 65, (S)—N-(1-((3,5-Bis(trifluoromethyl)phenyl)amino)-3-methyl-1-oxobutan-2-yl)-5-chloro-2-hydroxybenzamide]: in the series on HAdV5-GFP, the “Selectivity index (SI)” value was determined as 77.4, the inhibition at 10 µM came to 99.5 ± 0.7% and the IC50 turned out to be 0.4 µM. For the same compound, in the series on A549 cells, the CC50 was found to be 30.9 µM.

On to `CC(C)[C@H](NC(=O)c1cc(Cl)ccc1O)C(=O)Nc1cc(F)cc(C(F)(F)F)c1` [Compound 67, (S)-5-Chloro-N-(1-((3-fluoro-5-(trifluoromethyl)phenyl)amino)-3-methyl-1-oxobutan-2-yl)-2-hydroxybenzamide], for which, in the series with HAdV5-GFP, the “Selectivity index (SI)” value was 65.2, the inhibition at 10 µM was 95.8 ± 5.9% and the 50% inhibitory concentration (IC50) amounted to 0.66 µM. Also, the CC50 in the series with A549 cells was 43 µM.

Turning to `CC(C)[C@H](NC(=O)c1cc(Cl)ccc1O)C(=O)Nc1ccc(F)c(F)c1` [Compound 68, (S)-5-Chloro-N-(1-((3,4-difluorophenyl)amino)-3-methyl-1-oxobutan-2-yl)-2-hydroxybenzamide], in the series with HAdV5-GFP, the “Selectivity index (SI)” value was 32.1, the inhibition at 10 µM came to 98.3 ± 2.4% and the concentration for half-maximal inhibition (IC50) was determined as 2.96 µM. Also, the CC50 in the series with A549 cells stood at 95 ± 18.7 µM.

As to `O=C(N[C@@H](Cc1ccccc1)C(=O)Nc1cc(C(F)(F)F)cc(C(F)(F)F)c1)c1cc(Cl)ccc1O` [Compound 69, (S)—N-(1-((3,5-Bis(trifluoromethyl)phenyl)amino)-1-oxo-3-phenylpropan-2-yl)-5-chloro-2-hydroxybenzamide], in the series on HAdV5-GFP, the “Selectivity index (SI)” value is 44.9, the inhibition at 10 µM came out at 99 ± 1.4% and the 50% inhibitory concentration (IC50) was 0.4 µM. In addition, the CC50 in the series with A549 cells came to 17.9 µM.

In the case of `CS(=O)(=O)Nc1ccc(Cl)cc1C(=O)NCC(=O)Nc1ccc([N+](=O)[O-])cc1Cl` [Compound 72, 5-Chloro-N-(2-((2-chloro-4-nitrophenyl)amino)-2-oxoethyl)-2-(methylsulfonamido)benzamide], in the series on HAdV5-GFP, the “Selectivity index (SI)” value was 14.6, the inhibition at 10 µM came to 99.6 ± 5.5% and the 50% inhibitory concentration (IC50) stood at 9.65 ± 0.01 µM. Further, the CC50 with A549 cells was found to be 141 ± 13.5 µM.

`CCNc1ccc(NC(=O)c2cc(Cl)ccc2O)c(Cl)c1` [Compound 79, 5-Chloro-N-(2-chloro-4-(ethylamino)phenyl)-2-hydroxybenzamide]: in the series with HAdV5-GFP, the “Selectivity index (SI)” value was 13.9, the inhibition at 10 µM amounted to 100% and the IC50 was 2.18 µM. Further, the CC50 in the series on A549 cells is 30.2 ± 4.1 µM.

With `CCCNc1ccc(NC(=O)c2cc(Cl)ccc2O)c(Cl)c1` [Compound 80, 5-Chloro-N-(2-chloro-4-(propylamino)phenyl)-2-hydroxybenzamide], in the series with HAdV5-GFP, the “Selectivity index (SI)” value was 4.5, the inhibition at 10 µM was 100% and the IC50 came out at 5.04 µM. Besides, the CC50 with A549 cells came to 22.5 ± 10.6 µM.

`CC(C)Nc1ccc(NC(=O)c2cc(Cl)ccc2O)c(Cl)c1` [Compound 81, 5-Chloro-N-(2-chloro-4-(isopropylamino)phenyl)-2-hydroxybenzamide]: in the series on HAdV5-GFP, the “Selectivity index (SI)” value was 12.5, the inhibition at 10 µM stood at 100% and the IC50 is 0.88 µM. Further, in the series with A549 cells, the CC50 came out at 11 ± 1.4 µM.

For the compound `CC(C)CNc1ccc(NC(=O)c2cc(Cl)ccc2O)c(Cl)c1` [Compound 82, 5-Chloro-N-(2-chloro-4-(isobutylamino)phenyl)-2-hydroxybenzamide], in the series with HAdV5-GFP, the “Selectivity index (SI)” value turned out to be 67.4, the inhibition at 10 µM was 100% and the IC50 was 0.89 µM. The CC50 in the series on A549 cells was 60 ± 15 µM.

As for `CCCCCCC(C)Nc1ccc(NC(=O)c2cc(Cl)ccc2O)c(Cl)c1` (stereo not shown) [Compound 83, 5-Chloro-N-(2-chloro-4-(octan-2-ylamino)phenyl)-2-hydroxybenzamide], in the series on HAdV5-GFP, the “Selectivity index (SI)” value is reported as 73.4, the inhibition at 10 µM came out at 100% and the 50% inhibitory concentration (IC50) worked out at 0.32 µM. The CC50 in the series with A549 cells amounted to 23.5 ± 3 µM.

The values above are taken from patent US20230140290A1, “SALICYLAMIDE DERIVATIVES AND RELATED METHODS OF MAKING” (THE BOARD OF REGENTS OF THE UNIVERSITY OF TEXAS SY, priority 2020, published 2023).
